According to ChEMBL document CHEMBL5390225, “Discovery and structural optimization of a new series of N-acyl-2-aminobenzothiazole as inhibitors of Zika virus” (Bioorg Med Chem, 2023):
pEC50, pIC50: −log10 of the molar value.

What was measured:
[1] = Cytotoxicity against African green monkey Vero E6 cells assessed as cell viability at 2 uM measured after 72 hrs by MTT assay relative to control; type: toxicity, cell-based, Vero C1008; conditions: chlorocebus sabaeus, read-out: Activity
[2] = Cytotoxicity against African green monkey Vero E6 cells assessed as cell viability at 10 uM measured after 72 hrs by MTT assay relative to control; type: toxicity, cell-based, Vero C1008; conditions: chlorocebus sabaeus, read-out: Activity
Zika virus [3] = assay: Antiviral activity against Zika virus PE243 infected in African green monkey Vero E6 cells assessed as inhibition of viral replication at 2 uM incubated for 72 hrs by immunofluorescence analysis; type: functional; conditions: PE243, Vero C1008
Zika virus [4] = assay: Inhibition of Zika virus BeH823339 NS2B protease (49 to 95 residues) R96A mutant/NS3 protease (1 to 170 residues) R29G/ C80S/C143S mutant expressed in Escherichia coli BL21 (DE3) cells using Bz-Nle-Lys-Lys-Arg-AMC as a fluorogenic substrate at 100 uM preincubated with enzyme for 10 mins by fluorescence-based analysis relative to control
Zika virus [5] = assay: Antiviral activity against Zika virus PE243 infected in African green monkey Vero E6 cells assessed as inhibition of viral replication at 10 uM incubated for 72 hrs by immunofluorescence analysis; type: functional; conditions: PE243, Vero C1008
[6] = Selectivity index, ratio of CC50 for cytotoxicity against African green monkey Vero E6 cells to EC50 for antiviral activity against Zika virus PE243 infected in African green monkey Vero E6 cells; type: toxicity, cell-based, Vero C1008; conditions: read-out: Ratio CC50/EC50
Zika virus [7] = assay: Antiviral activity against Zika virus infected in golden hamster BHK21-RepZIKV_IRES-Neo cells assessed as inhibition of viral replication by measuring reduction in renilla luciferase expression at 10 uM measured after 72 hrs by luciferase reporter gene assay relative to control; type: functional, Mesocricetus auratus; conditions: BHK-21
Zika virus [8] = assay: Antiviral activity against Zika virus PE243 infected in African green monkey Vero E6 cells assessed as inhibition of viral replication incubated for 72 hrs by immunofluorescence analysis; type: functional, organism-based; conditions: PE243, Vero C1008, 72 h
BHK-21 = assay: Cytotoxicity against golden hamster BHK21-RepZIKV_IRES-Neo cells assessed as reduction in cell viability measured after 72 hrs by MTT assay; type: toxicity, cell-based, Mesocricetus auratus; conditions: bhk-21, 72 h
Zika virus [9] = assay: Inhibition of Zika virus BeH823339 NS2B protease (49 to 95 residues) R96A mutant/NS3 protease (1 to 170 residues) R29G/ C80S/C143S mutant expressed in Escherichia coli BL21 (DE3) cells using Bz-Nle-Lys-Lys-Arg-AMC as a fluorogenic substrate at 100 uM by fluorescence-based analysis relative to control
[10] = Cytotoxicity against African green monkey Vero E6 cells assessed as reduction in cell viability measured after 72 hrs by MTT assay; type: toxicity, cell-based, Vero C1008; conditions: chlorocebus sabaeus
Zika virus [11] = assay: Inhibition of Zika virus BeH823339 NS2B protease (49 to 95 residues) R96A mutant/NS3 protease (1 to 170 residues) R29G/ C80S/C143S mutant expressed in Escherichia coli BL21 (DE3) cells using Bz-Nle-Lys-Lys-Arg-AMC as a fluorogenic substrate at 10 uM preincubated with enzyme for 10 mins in presence of BSA by fluorescence-based analysis relative to control
[12] = Inhibition of Zika virus BeH823339 NS2B protease (49 to 95 residues) R96A mutant/NS3 protease (1 to 170 residues) R29G/ C80S/C143S mutant expressed in Escherichia coli BL21 (DE3) cells using Bz-Nle-Lys-Lys-Arg-AMC as a fluorogenic substrate preincubated with enzyme for 10 mins by fluorescence-based analysis
Zika virus [13] = assay: Inhibition of Zika virus BeH823339 NS2B protease (49 to 95 residues) R96A mutant/NS3 protease (1 to 170 residues) R29G/ C80S/C143S mutant expressed in Escherichia coli BL21 (DE3) cells using Bz-Nle-Lys-Lys-Arg-AMC as a fluorogenic substrate at 12.5 uM preincubated with 2 nM enzyme for 10 mins by fluorescence-based analysis relative to control
[14] = target: Cruzipain (Trypanosoma cruzi) (UniProt P25779); assay: Inhibition of recombinant Trypanosoma cruzi Cruzain using Z-Phe-Arg-AMC as fluorogenic substrate at 12.5 uM preincubated with enzyme for 10 mins by fluorescence-based analysis relative to control
Cruzipain (Trypanosoma cruzi), sequence (P25779 123-467 limits assumed): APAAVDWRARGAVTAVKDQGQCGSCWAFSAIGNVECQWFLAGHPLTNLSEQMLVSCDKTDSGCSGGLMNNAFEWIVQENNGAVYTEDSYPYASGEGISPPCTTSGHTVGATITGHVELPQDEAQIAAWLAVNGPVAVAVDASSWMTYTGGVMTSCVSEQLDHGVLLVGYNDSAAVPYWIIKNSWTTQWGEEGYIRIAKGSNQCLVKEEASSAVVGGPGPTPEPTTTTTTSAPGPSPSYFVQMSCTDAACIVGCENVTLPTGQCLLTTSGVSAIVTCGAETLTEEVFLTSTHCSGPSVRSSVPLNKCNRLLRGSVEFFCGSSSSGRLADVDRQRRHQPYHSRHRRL

Zika virus [15] = assay: Inhibition of Zika virus BeH823339 NS2B protease (49 to 95 residues) R96A mutant/NS3 protease (1 to 170 residues) R29G/ C80S/C143S mutant expressed in Escherichia coli BL21 (DE3) cells using Bz-Nle-Lys-Lys-Arg-AMC as a fluorogenic substrate at 12.5 uM preincubated with 0.2 nM enzyme for 10 mins by fluorescence-based analysis relative to control
Zika virus [16] = assay: Inhibition of Zika virus BeH823339 NS2B protease (49 to 95 residues) R96A mutant/NS3 protease (1 to 170 residues) R29G/ C80S/C143S mutant expressed in Escherichia coli BL21 (DE3) cells using Bz-Nle-Lys-Lys-Arg-AMC as a fluorogenic substrate at 100 uM preincubated with enzyme for 10 mins in presence of 0.001% TritonX-100 by fluorescence-based analysis

| Structure (SMILES) | viability at 72 h, 2 µM [1] [%] | viability at 72 h, 10 µM [2] [%] | inhibition at 2 µM (Zika virus [3]) [%] | inhibition (Zika virus [4]) [%] | inhibition at 10 µM (Zika virus [5]) [%] | selectivity ratio [6] | inhibition at 10 µM (Zika virus [7]) [%] | pEC50 (Zika virus [8]) | Activity (BHK-21) | inhibition (Zika virus [9]) [%] | CC50 at 72 h [10] [µM] | inhibition (Zika virus [11]) [%] | pIC50 [12] | inhibition (Zika virus [13]) [%] | inhibition [14] [%] | inhibition (Zika virus [15]) [%] | inhibition (Zika virus [16]) [%] |
| --- | --- | --- | --- | --- | --- | --- | --- | --- | --- | --- | --- | --- | --- | --- | --- | --- | --- |
| Cc1ccc(S(=O)(=O)NCC(=O)Nc2nc3ccccc3s2)cc1 | 101 | 74.4 | 6.8 | 21 | 27.9 |  |  |  |  |  |  |  |  |  |  |  |  |
| O=C(Nc1nc2ccccc2s1)c1ccc(NS(=O)(=O)c2ccc(Br)cc2)cc1 | 97 | 22.7 | 69.1 | 4 | 75.7 | 9.2 | 60.4 | 5.30 | Non-Toxic | 7 | 45.8 |  |  |  |  |  |  |
| O=C(Nc1nc2ccccc2s1)c1ccc(NS(=O)(=O)c2ccccc2)cc1 | 85.9 | 17.7 | 44.7 | 28 | 82.6 |  |  |  |  | 20 |  |  |  |  |  |  |  |
| O=C(CNS(=O)(=O)c1ccc(F)cc1)Nc1nc2ccccc2s1 | 95.6 | 26.5 | 15.9 | 43 | 65.1 |  |  |  |  |  |  |  |  |  |  |  |  |
| COc1ccc(S(=O)(=O)Nc2cccc(C(=O)Nc3nc4ccccc4s3)c2)cc1 | 79.3 | 17.7 | 72.9 | 11 | 87.5 | 25.1 | 40.3 | 5.29 | Non-Toxic | 2 | 128 |  |  |  |  |  |  |
| O=C(Nc1nc2ccccc2s1)c1ccc(NS(=O)(=O)c2ccc(F)cc2)cc1 | 93.6 | 40.4 | 15.3 | 27 | 54.7 |  |  |  |  | 22 |  |  |  |  |  |  |  |
| COc1ccc(S(=O)(=O)Nc2ccc(C(=O)Nc3nc4ccccc4[nH]3)cc2)cc1 | 93.1 | 25.9 | 0 | 43 | 0 |  |  |  |  |  |  |  |  |  |  |  |  |
| COc1ccc(S(=O)(=O)Nc2ccccc2C(=O)Nc2nc3ccccc3[nH]2)cc1 | 33.5 | 19.9 | 97.6 | 100 | 98.8 | 1.7 | 46.4 | 4.47 | Non-Toxic | 62 | 56.5 | 8 | 5.10 | 16 | 58 | 62 | 42 |
| COc1ccc(S(=O)(=O)NCC(=O)Nc2nc3ccccc3s2)cc1 | 104 | 82.7 | 0 | 62 | 0 |  |  |  |  |  |  |  |  |  |  |  |  |
| O=C(Nc1nc2ccccc2s1)c1ccc(NS(=O)(=O)c2ccc([N+](=O)[O-])cc2)cc1 | 101 | 99.7 | 0 | 39 | 72.1 | 4 | 23.4 | 5.12 | Non-Toxic | 30 | 30.2 |  |  |  |  |  |  |
| Cc1ccc(S(=O)(=O)Nc2ccc(C(=O)Nc3nc4ccccc4s3)cc2)cc1 | 70.6 | 19.5 | 5.5 | 28 | 83 |  |  |  |  | 20 |  |  |  |  |  |  |  |
| CC(=O)Nc1ccc(S(=O)(=O)Nc2ccc(C(=O)Nc3nc4ccccc4s3)cc2)cc1 | 98.1 | 72.3 | 0.9 | 57 | 25.8 |  |  |  |  | 44 |  |  |  |  |  |  |  |
| COc1ccc(S(=O)(=O)Nc2ccc(C(=O)Nc3nccs3)cc2)cc1 | 95.7 | 98.9 | 4.9 | 7 | 16.1 |  |  |  |  |  |  |  |  |  |  |  |  |
| CC(C)(C)OC(=O)NCC(=O)Nc1nc2ccccc2s1 | 104 | 60.1 | 18.9 |  | 56.5 | 4.7 |  | 4.77 |  |  | 79 |  |  |  |  |  |  |
| COc1cc(Cl)ccc1S(=O)(=O)Nc1ccc(C(=O)Nc2nc3ccccc3s2)cc1 | 44 | 17.5 | 64.5 | 5 | 100 | 2.2 | 3.4 | 4.97 | Non-Toxic | 3 | 23.9 |  |  |  |  |  |  |
